How the values were obtained:
[1] = target: T1, SOS1 and KRAS G12C interaction (Homo sapiens, UniProt Q07889); test: Biochemical analysis of the inhibitory activity of SOS1 and KRAS G12C interaction (time-resolved fluorescence, 665/615 nm)
T1 sequence (Q07889 564-1049 limits assumed): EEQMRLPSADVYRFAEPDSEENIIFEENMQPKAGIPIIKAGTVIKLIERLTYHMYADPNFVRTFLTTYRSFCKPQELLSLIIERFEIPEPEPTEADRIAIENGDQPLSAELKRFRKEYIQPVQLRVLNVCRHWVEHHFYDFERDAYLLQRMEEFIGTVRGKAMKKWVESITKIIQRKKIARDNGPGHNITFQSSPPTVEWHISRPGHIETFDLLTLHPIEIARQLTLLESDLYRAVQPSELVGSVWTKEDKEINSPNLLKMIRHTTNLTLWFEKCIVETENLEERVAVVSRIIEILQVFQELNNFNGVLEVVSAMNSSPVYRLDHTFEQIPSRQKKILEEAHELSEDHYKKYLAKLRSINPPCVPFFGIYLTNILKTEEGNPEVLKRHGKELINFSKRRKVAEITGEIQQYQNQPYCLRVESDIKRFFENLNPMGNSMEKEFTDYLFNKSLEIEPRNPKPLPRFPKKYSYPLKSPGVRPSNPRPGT
Protocol: Biochemical analysis of the inhibitory activity of SOS1 and KRAS G12C interaction
In this experimental example, the efficacy of the compound according to the present invention in inhibiting the binding of KRAS and SOS1 was biochemically measured. A KRAS G12C working solution was prepared by adding biotin-linked KRAS G12C protein and europium-linked streptavidin to assay buffer solution (20 mM HEPES, 50 mM NaCl, 200 µg/mL […] (BSA), 0.01% Pluronic F127). Then, SOS1, in which a tag consisting of six histidine residues is covalently linked, and anti-histidine tag antibody D2 were added to the assay buffer to prepare an SOS1 working solution. After these two working solutions were added to the wells of a well plate, solutions diluted according to the experimental concentration of the test compound from the 10 mM dimethyl sulfoxide (DMSO) stock solution of the Example compound or positive control compound were added to the wells in 100 nL aliquots using an Echo automatic dispenser (Beckman Coulter, USA), or a DMSO blank was added to the wells.

[2] = target: T2, SOS2 and KRAS G12C interaction (Homo sapiens, UniProt Q07890); format: biochemical
T2 sequence (Q07890 1-1332): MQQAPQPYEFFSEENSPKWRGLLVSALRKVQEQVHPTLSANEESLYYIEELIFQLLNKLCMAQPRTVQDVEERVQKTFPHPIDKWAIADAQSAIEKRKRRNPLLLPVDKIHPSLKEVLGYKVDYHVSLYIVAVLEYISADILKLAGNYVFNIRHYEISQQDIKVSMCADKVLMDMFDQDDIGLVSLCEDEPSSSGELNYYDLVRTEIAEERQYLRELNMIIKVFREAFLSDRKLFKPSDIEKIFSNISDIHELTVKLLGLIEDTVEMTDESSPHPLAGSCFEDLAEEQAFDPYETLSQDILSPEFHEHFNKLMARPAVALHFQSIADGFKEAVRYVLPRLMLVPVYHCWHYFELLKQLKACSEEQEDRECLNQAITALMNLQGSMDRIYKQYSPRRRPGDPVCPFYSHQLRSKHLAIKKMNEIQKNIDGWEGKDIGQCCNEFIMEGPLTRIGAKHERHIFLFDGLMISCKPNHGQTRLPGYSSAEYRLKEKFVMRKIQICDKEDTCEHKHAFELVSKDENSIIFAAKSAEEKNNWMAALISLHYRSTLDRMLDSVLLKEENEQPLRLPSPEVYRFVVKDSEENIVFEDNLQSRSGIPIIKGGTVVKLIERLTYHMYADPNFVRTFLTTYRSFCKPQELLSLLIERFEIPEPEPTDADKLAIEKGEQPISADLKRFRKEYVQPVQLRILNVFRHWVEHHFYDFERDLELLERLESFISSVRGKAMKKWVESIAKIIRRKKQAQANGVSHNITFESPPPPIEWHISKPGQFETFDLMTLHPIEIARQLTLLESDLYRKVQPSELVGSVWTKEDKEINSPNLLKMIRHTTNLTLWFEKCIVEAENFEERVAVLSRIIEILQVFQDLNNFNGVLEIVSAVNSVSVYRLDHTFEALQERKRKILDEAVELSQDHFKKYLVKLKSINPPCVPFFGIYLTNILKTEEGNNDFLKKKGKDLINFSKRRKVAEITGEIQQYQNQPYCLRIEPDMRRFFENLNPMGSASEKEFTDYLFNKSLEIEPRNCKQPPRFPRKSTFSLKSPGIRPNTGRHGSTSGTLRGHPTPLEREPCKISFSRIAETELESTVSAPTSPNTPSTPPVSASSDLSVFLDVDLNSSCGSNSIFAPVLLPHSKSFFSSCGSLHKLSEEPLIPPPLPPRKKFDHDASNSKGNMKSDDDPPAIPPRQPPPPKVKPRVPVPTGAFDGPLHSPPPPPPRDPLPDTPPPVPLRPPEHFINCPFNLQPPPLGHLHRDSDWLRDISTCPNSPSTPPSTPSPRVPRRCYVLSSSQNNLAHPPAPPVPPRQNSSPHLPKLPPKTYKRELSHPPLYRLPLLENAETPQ

MIA-PaCa-2 = test: Reactive oxygen species (ROS) production assay; format: cell-based; settings: MIA-PaCa-2 cells, 10 µM, 24 hours; Figure 3
Protocol: Reactive oxygen species (ROS) production assay
In this experimental example, it was examined that the compound according to the present invention has the effect of increasing reactive oxygen in tumor cells.
MIA-PaCa-2 (Korea Cell Line Bank KCLB No. 21420), a cancer cell line harboring KRAS G12C mutation, was cultured in a cell culture medium containing RPMI1640 (Gibco, USA, catalog no. 11875-119), 10% fetal bovine serum (HyClone, USA, catalog no. SH30919.03), and 1 × diluted HyClone Antibiotic Antimycotic solution (HyClone, USA, catalog no. SV30079.01). 3 × 10^5 cells were seeded per well in a 6-well plate and cultured for 1 day at 37°C under 5% CO2 conditions. […] The cells were then collected in a microtube and analyzed for fluorescence using a BD LSRFortessa™ X-20 Cell Analyzer (BD Biosciences, USA) (excitation wavelength: 488 nm, emission wavelength: 535 nm). The fluorescence intensity due to the increase in reactive oxygen species was measured for 10,000 cells. Among the cells treated with 500 µM hydrogen peroxide, which was the positive control, the section in which the fluorescence intensity increased compared to the cells treated with the blank sample was found, and the average fluorescence intensity of the cells within this section was calculated. […]

CNCc1ccccc1-c1c[se]c([C@@H](C)Nc2nc(C)nc3cc(OC)c(OC)cc23)c1 [Example 1, (R)-6,7-dimethoxyl-2-methyl-N-(1-(4-(2-((methylamino)methyl)phenyl)selenophen-2-yl)ethyl)quinazolin-4-amine]
IC50 [1]: 0.0186 µM
IC50 [2]: 24.6 µM
ROS production compared to the blank sample (MIA-PaCa-2): significantly increased ROS production

Source: patent publication EP4737453A1, “NOVEL SELENOPHENE DERIVATIVES” (Aigen Sciences Inc., priority 2023, dated 2025)
